The values that follow are results of earlier work, collected in US20140296830A1 (priority 2013, published 2014).

For series [1] the following is noted: versus mepivacaine and lidocaine.
For series [2] the following is noted: pH 4.

`CCCCN1CCCCC1C(=O)Nc1c(C)cccc1C` (centres unmarked) [bupivacaine]: the “potency relative to mepivacaine and lidocaine” value in series [1] is “about 4 times”. For the molecule `CSCC[C@@H]1NC(=O)[C@H](CC(C)C)NC(=O)[C@H](CCCNC(=N)N)NC(=O)[C@H](CO)NC(=O)[C@@H]2CSSC[C@@H]3NC(=O)[C@H](CO)NC(=O)CNC(=O)[C@H]([C@@H](C)O)NC(=O)[C@H](CSSC[C@H](N)C(=O)N[C@@H](CCCCN)C(=O)NCC(=O)N[C@@H](CCCCN)C(=O)NCC(=O)N[C@@H](C)C(=O)N[C@@H](CCCCN)C(=O)N2)NC(=O)[C@H](CSSC[C@@H](C(N)=O)NC(=O)[C@H](CCCCN)NC(=O)CNC(=O)[C@H](CO)NC(=O)[C@H](CCCNC(=N)N)NC3=O)NC(=O)[C@H](CC(=O)O)NC(=O)[C@H](Cc2ccc(O)cc2)NC1=O` [ziconotide], the solution stability result in series [2] is “stable at 45 °C for weeks”.
